Assay results published in US20240108740A1, “THERAPEUTIC COMPOSITIONS INCLUDING SPN10 AND USES THEREOF” (Stealth BioTherapeutics Inc., priority 2022, published 2024).
Residues, ends and D or L forms follow the SMILES beside them.

Tests used:
Sprague-Dawley rats = assay: Example 42: CCl4-induced chronic nephrotoxicity; type: in vivo, rat
Text: […]
Renal Histology: Kidneys will be fixed in 10% neutral-buffered formalin and embedded in paraffin wax for sectioning. Three-micron sections will be stained with hematoxylin-eosin (H&E) and analyzed by light microscopy by a certified pathologist.

[1] = system: isolated mitochondrial, cultured cells and animal subjects; assay: Mitochondrial reduction potential; details: in vitro and in vivo
Text: It is anticipated that SPN10(s) (with or without aromatic-cationic peptides) and conjugates will enhance mitochondrial reduction potential in vitro in isolated mitochondrial and in vivo in cultured cells and animal subjects.

N2A cells = assay: Example 24: lipid peroxidation (4-HNE Michael adducts); type: cell-based; details: t-BHP 1 mM, 3 hours
Procedure: Lipid peroxidation will be evaluated by measuring 4-HNE Michael adducts. 4-HNE is one of the major products of the peroxidation of membrane polyunsaturated fatty acids. N2A cells will be seeded on a glass dish 1 day before t-BHP treatment (1 mM, 3 hours, 37° C., 5% CO2) alone or in the presence of peptide conjugates (10^−8 to 10^−10 M), aromatic-cationic peptides (an equivalent molar dose of aromatic-cationic peptide based on the concentration of the aromatic-cationic peptide administered in the peptide conjugate treatment group); SPN10(s) (an equivalent molar dose of SPN10 based on the concentration of SPN10 administered in the peptide conjugate treatment group); or SPN10(s) in combination with aromatic-cationic peptides (e.g., an equivalent molar dose of SPN10 based on the concentration of SPN10 administered in the peptide conjugate treatment group and an equivalent molar dose of aromatic-cationic peptide based on the concentration of aromatic-cationic peptide administered in the peptide conjugate treatment group). Cells will be washed twice with PBS, fixed 30 minutes with 4% paraformaldehyde in PBS at RT, and washed 3 additional times with PBS. […] Cells will be mounted in Vectashield and imaged using a Zeiss fluorescence microscope using an excitation wavelength of 460±20 nm and a longpass filter of 505 nm for emission.

For N=C(N)NCCC[C@H](NC(=O)[C@@H](N)Cc1c[nH]c2ccccc12)C(=O)N[C@@H](Cc1c[nH]c2ccccc12)C(=O)N[C@@H](CCCCN)C(N)=O [SPN10, H-L-Trp-L-Arg-L-Trp-L-Lys-NH2] (H-WRWK-NH2), the “histopathological changes (H&E) compared to untreated control animals of Group (1)” value (Sprague-Dawley rats; rat, in vivo) was “no significant histopathological changes”, the “protection of renal tubules from CCl4 nephrotoxicity” value (Sprague-Dawley rats; s.c. 5 days per week, 7 weeks) was “protect renal tubules from CCl4 nephrotoxicity” and the mitochondrial reduction potential [1] was “enhance”. For the same molecule, the “lipid peroxidation in cells treated with t-BHP” value (N2A cells) was “inhibit lipid peroxidation”.
